Source: patent US4923861A, “6-(2-(2-(Substituted amino)-3-quinolinyl) ethenyl and ethyl) tetrahydro-4-hydroxypyran-2-one inhibitors of cholesterol biosynthesis” (Warner-Lambert Company, priority 1989, dated 1990)
Where a name gives a salt, the structure may show the parent alone.

Legend:
[1] = test system: cholesterol synthesis (plasma [14C]cholesterol); experiment: AICS (Acute Inhibition of Cholesterol Synthesis) screen; type: in vivo, male Sprague-Dawley rats; details: cholestyramine-fed male rats, single oral gavage dose (dose not given), [1-14C]acetate i.p. one hour after dosing, blood after 50 minutes
Experimental: Additionally, the ability of compounds of the present invention to inhibit the biosynthesis of cholesterol was also measured by a method (designated AICS (Acute Inhibition of Cholesterol Synthesis) screen) which utilizes the procedure described by A. W. Alberts, et al, Proceedings of the National Academy of Sciences, Volume 77, pages 3957-3961 (1980).
In this method male Sprague-Dawley rats (200 g body weight) previously fed 5% cholestyramine for three days were randomly divided into groups (N=5/group) and given a single dose of vehicle (controls) or compound by an oral gavage at the indicated doses. One hour after drug dosing, all rats were injected intraperitoneally with sodium[1-^14 C]acetate (18.75 μCi/rat in 0.2 ml saline). After 50 minutes, blood samples were taken, plasma obtained by centrifugation, and plasma [^14 C]cholesterol measured after saponification and extraction.

[2] = test system: sterol synthesis (rat liver homogenate); experiment: CSI (Cholesterol Synthesis Inhibition) screen; type: biochemical; details: 14C-acetate incorporation into nonsaponifiable lipid, one-hour period
Experimental: The ability of compounds of the present invention to inhibit the biosynthesis of cholesterol was measured by a method (designated CSI (Cholesterol Synthesis Inhibition) screen) which utilizes the procedure described by R. E. Dugan et al, Archives of Biochemistry and Biophysics, Volume 152, pages 21-27 (1972). In this method, the level of HMG-CoA enzyme activity in standard laboratory rats is increased by feeding the rats a chow diet containing 5% cholestyramine for four days, after which the rats are sacrificed.
The rat livers are homogenized, and the incorporation of ^14 C-acetate into nonsaponifiable lipid by the rat liver homogenate is measured. The micromolar concentration of compound required for 50% inhibition of sterol synthesis over a one-hour period is measured, and expressed as an IC50 value.

IC50 [2] | SMILES | AICS % Inhibition [1]
– | CN(C)c1nc2ccccc2c(-c2ccc(F)cc2)c1/C=C/[C@@H]1C[C@@H](O)CC(=O)O1 (relative stereo) [1 (lactone), [4α,6β(E)]-6-[2-[2-(Dimethylamino)-4-(4-fluorophenyl)-3-quinolinyl]ethenyl]tetrahydro-4-hydroxy-2H-pyran-2-one] | 52%
47 nM | CN(C)c1nc2ccccc2c(-c2ccc(F)cc2)c1/C=C/[C@@H](O)C[C@@H](O)CC(=O)O (relative stereo) [[R*,S*-(E)]-7-[2-dimethylamino)-4-(4-fluorophenyl)-3-quinolinyl]-3,5-dihydroxy-6-heptenoic acid, monosodium salt] | 49%
